Source: US11874603B2, “Photoresist composition comprising amide compound and pattern formation methods using the same” (Rohm And Haas Electronic Materials Korea Ltd., priority 2021, dated 2024)

Experiment: lipophilicity (log P) of the quencher
Assay type: physicochemical
Settings: organic (oil) phase / aqueous phase partition
Description: Lipophilicity, most commonly referred to as the Log P, represents the ratio at equilibrium of the concentration of a compound between two phases, an oil and a […] phase. The Log P value is a constant defined in the following manner: Log P=log 10 (Partition Coefficient) Partition Coefficient, P=[organic]/[aqueous] where the square bracket parenthesis “[ ]” indicates the concentration of solute in the organic and aqueous partition.

| SMILES | logP |
| --- | --- |
| CCCCCCCCN(CCCCCCCC)C(C)=O [Quencher-I] | 6.69 |
| CCCCCCCCN(CCCCCCCC)CCCCCCCC [Quencher-A] | 10.8 |
| CCCCCCCCN(CCCCCCCC)C(=O)CCCCCCC [Quencher-B] | 10.2 |
| CCCCCCCCCCCC(=O)N(CC)CC [Quencher-H] | 5.6 |
